Reference: US20240360177A1, “PEPTIDES WITH ANTIMICROBIAL ACTIVITIES” (priority 2021, published 2024)
Values after ≈ are worked out from the molar mass of the structure shown. Like-named read-outs stand apart in the source and are kept apart here. Non-standard residues stand in square brackets, D forms with d. Residues, ends and D or L forms follow the SMILES beside them. Aoc = NCCCCCCCC(=O)O; βAla = NCCC(=O)O

Tests used:
in vitro [1] = settings: human, EC50 cytotoxicity in HepG2, intracellular ATP assay
C. parapsilosis = settings: 24 h
[2] = test system: Staphylococcus aureus ATCC 29213; format: cell-based
C. tropicalis = settings: 24 h
C. auris = settings: 24 h
[3] = test system: Pseudomonas aeruginosa ATCC 27853; format: cell-based
in vitro [4] = settings: human, human serum, full strength
[5] = test system: Escherichia coli ATCC 25922; format: cell-based
C. dubliniensis = settings: 24 h
C. glabrata = settings: 24 h
C. albicans = settings: 24 h
C. krusei = settings: 24 h
Scedosporium spp. = settings: 72 h
Fusarium spp. = settings: 48 h
C. neoformans = settings: 72 h
C. gattii = settings: 72 h
[6] = Subacute toxicity in CD-1 mice; format: in vivo; settings: daily IP for 7 days
Description: In the subacute toxicity study, groups of CD-1 male or female mice were administered seven consecutive daily intraperitoneal doses (n=3 per dose) of the peptides (SEQ ID NO: 7, SEQ ID NO: 29, SEQ ID NO: 53) dissolved in normal saline for injection. Each peptide was evaluated at 2 to 3 dose levels ranging from 2.5 to 7.5 mg/kg/day. Mice were weighed at least once daily and observed at least twice daily for any abnormal findings and determination of overall health. At 24 hrs after the last dose, mice were humanely euthanized, with blood collected through cardiac puncture into K2EDTA microtainers to assess hematological parameters. All three peptides were tolerated at the highest dose evaluated (7.5 mg/kg/day) for 7 days.

[7] = mice
Coccidioides species = settings: 48-72 hrs, >50% inhibition
[8] = Acute toxicity in CD-1 mice; settings: both sexes, mouse, in vivo
Description: Acute toxicity and subacute toxicity of ACPs were tested in CD-1 mice. In the acute toxicity study, groups of CD-1 male or female mice were administered single intravenous or intraperitoneal escalating doses (n=2-3 per dose) of the peptides dissolved in normal saline for injection or in phosphate buffered saline. The intravenous dose was administered via tail vein with a slow push over 15-20 seconds. Doses were escalated based on tolerability.

Paecilomyces variotii = settings: 48 h
Rhizopus arrhizus = settings: 24 h
[9] = single IP dose, read-out: Tolerated single intraperitoneal dose
[10] = single IV dose via tail vein, read-out: Tolerated single intravenous dose

Row | SMILES | EC50 (in vitro [1]) | MIC C. parapsilosis (C. parapsilosis) | MIC Staphylococcus aureus [2] | MIC C. tropicalis (C. tropicalis) | MIC C. auris (C. auris) | MIC Pseudomonas aeruginosa [3] | remaining at 2 h, 5 μM (in vitro [4]) | MIC Escherichia coli [5] | MIC C. dubliniensis (C. dubliniensis) | MIC50 Candida species (Candida spp.) | MIC90 Candida species (Candida spp.) | MIC C. glabrata (C. glabrata) | MIC C. albicans (C. albicans) | MIC C. krusei (C. krusei) | MIC Range Scedosporium spp. (Scedosporium spp.) | MIC Range Fusarium spp. (Fusarium spp.) | MIC C. neoformans (C. neoformans) | MIC C. gattii (C. gattii) | MIC Range Lomentospora prolificans (Lomentospora prolificans) | MTD [8, 9] | other results
1 | N=C(N)NCCC[C@H](NC(=O)CCNC(=O)[C@H](CCCNC(=N)N)NC(=O)[C@@H](CCCNC(=N)N)NC(=O)[C@@H](N)CCCNC(=N)N)C(=O)N[C@H](CCCNC(=N)N)C(=O)N[C@@H](CCCNC(=N)N)C(=O)NCCC(=O)N[C@@H](CCCNC(=N)N)C(=O)N[C@H](CCCNC(=N)N)C(=O)N[C@@H](CCCNC(=N)N)C(=O)N[C@H](CCCNC(=N)N)C(=O)NCCC(=O)N[C@@H](CCCNC(=N)N)C(=O)N[C@H](CCCNC(=N)N)C(=O)N[C@@H](CCCNC(=N)N)C(=O)N[C@H](CCCNC(=N)N)C(N)=O [SEQ ID NO: 15, RrR-(Apr)-RrR-(Apr)-RrRr-(Apr)-RrRr-NH2] (H-R[dR]R[βAla]R[dR]R[βAla]R[dR]R[dR][βAla]R[dR]R[dR]-NH2) | > 300 µg/mL | 0.25 µg/mL (≈ 0.103 µM) | 16 µg/mL (≈ 6.62 µM) | 0.25 µg/mL (≈ 0.103 µM) | 0.5 µg/mL (≈ 0.207 µM) | 64 µg/mL (≈ 26.5 µM) | ~100% | 32 µg/mL (≈ 13.2 µM) | 0.5 µg/mL (≈ 0.207 µM) | 0.5 µg/mL (≈ 0.207 µM) | 1 µg/mL (≈ 0.414 µM) | 0.5 µg/mL (≈ 0.207 µM) | 1 µg/mL (≈ 0.414 µM) | 0.5 µg/mL (≈ 0.207 µM) | 0.25 to 0.5 µg/mL | 0.12 to 0.25 µg/mL | 0.5 µg/mL (≈ 0.207 µM) | 0.25 µg/mL (≈ 0.103 µM) | – | – | –
2 | N=C(N)NCCC[C@H](NC(=O)[C@H](CCCNC(=N)N)NC(=O)[C@H](CCCNC(=N)N)NC(=O)[C@H](CCCNC(=N)N)NC(=O)CCNC(=O)[C@H](CCCNC(=N)N)NC(=O)[C@H](CCCNC(=N)N)NC(=O)[C@H](CCCNC(=N)N)NC(=O)[C@H](CCCNC(=N)N)NC(=O)CCNC(=O)[C@H](CCCNC(=N)N)NC(=O)[C@H](CCCNC(=N)N)NC(=O)[C@H](CCCNC(=N)N)NC(=O)CCNC(=O)[C@H](CCCNC(=N)N)NC(=O)[C@H](CCCNC(=N)N)NC(=O)[C@@H](N)CCCNC(=N)N)C(N)=O [SEQ ID NO: 13, RRR-(Apr)-RRR-(Apr)-RRRR-(Apr)-RRRR-NH2] (H-RRR[βAla]RRR[βAla]RRRR[βAla]RRRR-NH2) | > 300 µg/mL | 0.25 µg/mL (≈ 0.103 µM) | – | 0.5 µg/mL (≈ 0.207 µM) | 4 µg/mL (≈ 1.66 µM) | – | ~40% | – | 2 µg/mL (≈ 0.828 µM) | 4 µg/mL (≈ 1.66 µM) | 16 µg/mL (≈ 6.62 µM) | 32 µg/mL (≈ 13.2 µM) | 8 µg/mL (≈ 3.31 µM) | 2 µg/mL (≈ 0.828 µM) | 0.25 µg/mL (≈ 0.103 µM) | 0.5 to 2 µg/mL | 1 µg/mL (≈ 0.414 µM) | 0.5 µg/mL (≈ 0.207 µM) | – | – | –
3 | N=C(N)NCCC[C@@H](N)C(=O)N[C@@H](CCCNC(=N)N)C(=O)N[C@H](CCCNC(=N)N)C(=O)NCCCCCCCC(=O)N[C@H](CCCNC(=N)N)C(=O)N[C@@H](CCCNC(=N)N)C(=O)N[C@H](CCCNC(=N)N)C(=O)NCCCCCCCC(=O)N[C@H](CCCNC(=N)N)C(=O)N[C@@H](CCCNC(=N)N)C(=O)N[C@H](CCCNC(=N)N)C(=O)N[C@@H](CCCNC(=N)N)C(=O)NCCCCCCCC(=O)N[C@H](CCCNC(=N)N)C(=O)N[C@@H](CCCNC(=N)N)C(=O)N[C@H](CCCNC(=N)N)C(=O)N[C@@H](CCCNC(=N)N)C(N)=O [SEQ ID NO: 29, rRr-(Aoa)-rRr-(Aoa)-rRrR-(Aoa)-rRrR-NH2] (H-[dR]R[dR][Aoc][dR]R[dR][Aoc][dR]R[dR]R[Aoc][dR]R[dR]R-NH2) | > 300 µg/mL | 0.5 µg/mL (≈ 0.19 µM) | 16 µg/mL (≈ 6.09 µM) | 0.5 µg/mL (≈ 0.19 µM) | 0.5 µg/mL (≈ 0.19 µM) | 32 µg/mL (≈ 12.2 µM) | ~100% | 16 µg/mL (≈ 6.09 µM) | 0.5 µg/mL (≈ 0.19 µM) | – | – | 0.5 µg/mL (≈ 0.19 µM) | 1 µg/mL (≈ 0.381 µM) | 0.5 µg/mL (≈ 0.19 µM) | 0.5 µg/mL (≈ 0.19 µM) | 0.5 µg/mL (≈ 0.19 µM) | 0.5 µg/mL (≈ 0.19 µM) | 0.5 µg/mL (≈ 0.19 µM) | 0.5 µg/mL (≈ 0.19 µM) | – | Tolerated dose (highest dose evaluated) [6]: 7.5 mg/kg/day; Clinical or hematological adverse effects ([6]; up to 7.5 mg/kg/day): No significant clinical or hematological adverse effects were observed; Kidney to Plasma Concentration Ratio Day 7 ([7]; 6 hrs post dose of 7.5 mg/kg IP once daily, Day 7, mean ± SD, n = 3): 361 ± 322; Kidney to Plasma Concentration Ratio Day 1 ([7]; 6 hrs post dose of 7.5 mg/kg IP, Day 1, mean ± SD, n = 3): 236 ± 233; Day 1 AUC ratio, kidney to plasma ([7]; IP 7.5 mg/kg, Day 1): 158; MIC Range Coccidioides species (Coccidioides species; N = 10 strains): 0.06 to 0.25 µg/mL
4 | N=C(N)NCCC[C@@H](N)C(=O)N[C@@H](CCCNC(=N)N)C(=O)N[C@H](CCCNC(=N)N)C(=O)NCCC(=O)N[C@H](CCCNC(=N)N)C(=O)N[C@@H](CCCNC(=N)N)C(=O)N[C@H](CCCNC(=N)N)C(=O)NCCC(=O)N[C@H](CCCNC(=N)N)C(=O)N[C@@H](CCCNC(=N)N)C(=O)N[C@H](CCCNC(=N)N)C(=O)N[C@@H](CCCNC(=N)N)C(=O)NCCC(=O)N[C@H](CCCNC(=N)N)C(=O)N[C@@H](CCCNC(=N)N)C(=O)N[C@H](CCCNC(=N)N)C(=O)N[C@@H](CCCNC(=N)N)C(=O)O [SEQ ID NO: 8, rRr-(Apr)-rRr-(Apr)-rRrR-(Apr)-rRrR] (H-[dR]R[dR][βAla][dR]R[dR][βAla][dR]R[dR]R[βAla][dR]R[dR]R-OH) | > 300 µg/mL | 0.25 µg/mL (≈ 0.103 µM) | – | 0.25 µg/mL (≈ 0.103 µM) | 4 µg/mL (≈ 1.65 µM) | – | ~100% | – | 0.25 µg/mL (≈ 0.103 µM) | – | – | 0.5 µg/mL (≈ 0.207 µM) | 0.5 µg/mL (≈ 0.207 µM) | 0.5 µg/mL (≈ 0.207 µM) | ≤0.12 µg/mL | 0.25 to 0.5 µg/mL | 0.5 µg/mL (≈ 0.207 µM) | 0.25 µg/mL (≈ 0.103 µM) | ≤0.12 µg/mL | 10 to 15 mg/kg | MTD [8, 10]: 5 to 7.5 mg/kg; MIC Range Coccidioides species (Coccidioides species; N = 3 strains): 0.25 to 0.5 µg/mL; MIC Range Paecilomyces variotii (Paecilomyces variotii): 0.25 µg/mL (≈ 0.103 µM); MIC Range Rhizopus arrhizus (Rhizopus arrhizus): 2 to 32 µg/mL
5 | N=C(N)NCCC[C@@H](N)C(=O)N[C@@H](CCCNC(=N)N)C(=O)N[C@H](CCCNC(=N)N)C(=O)NCCC(=O)N[C@H](CCCNC(=N)N)C(=O)N[C@@H](CCCNC(=N)N)C(=O)N[C@H](CCCNC(=N)N)C(=O)NCCC(=O)N[C@H](CCCNC(=N)N)C(=O)N[C@@H](CCCNC(=N)N)C(=O)N[C@H](CCCNC(=N)N)C(=O)N[C@@H](CCCNC(=N)N)C(=O)NCCC(=O)N[C@H](CCCNC(=N)N)C(=O)N[C@@H](CCCNC(=N)N)C(=O)N[C@H](CCCNC(=N)N)C(=O)N[C@@H](CCCNC(=N)N)C(=O)NCCCCCCCC(=O)O [SEQ ID NO: 16, rRr-(Apr)-rRr-(Apr)-rRrR-(Apr)-rRrR-(Aoa)] (H-[dR]R[dR][βAla][dR]R[dR][βAla][dR]R[dR]R[βAla][dR]R[dR]R[Aoc]-OH) | > 300 µg/mL | 0.5 µg/mL (≈ 0.195 µM) | – | 0.5 µg/mL (≈ 0.195 µM) | 0.5 µg/mL (≈ 0.195 µM) | – | – | – | 0.5 µg/mL (≈ 0.195 µM) | – | – | 0.5 µg/mL (≈ 0.195 µM) | 1 µg/mL (≈ 0.391 µM) | 0.5 µg/mL (≈ 0.195 µM) | – | 0.25 to 1 µg/mL | 0.5 µg/mL (≈ 0.195 µM) | 0.25 µg/mL (≈ 0.0977 µM) | 0.25 µg/mL (≈ 0.0977 µM) | 10 to 15 mg/kg | MTD [8, 10]: 5 to 7.5 mg/kg; MIC Range Coccidioides species (Coccidioides species; N = 3 strains): 0.5 µg/mL (≈ 0.195 µM); MIC Range Paecilomyces variotii (Paecilomyces variotii): 0.25 µg/mL (≈ 0.0977 µM); MIC Range Rhizopus arrhizus (Rhizopus arrhizus): 2 to 64 µg/mL
